The values that follow come from PMC9969401, “Discovery of 2-(3-Benzamidopropanamido)thiazole-5-carboxylate Inhibitors of the Kinesin HSET (KIFC1) and the Development of Cellular Target Engagement Probes” (Journal of Medicinal Chemistry, 2023).

The term inhibition denotes how much of the control response was suppressed.

The structures appear in SMILES notation. Like-named read-outs stand apart in the source and are kept apart here.

This assay has as its target T1, recombinant full-length HSET (Homo sapiens, UniProt Q9BW19).
T1 construct: 5 nM full-length human N-terminal His-tag HSET; His-tag (N)
T1 sequence (Q9BW19 1-673): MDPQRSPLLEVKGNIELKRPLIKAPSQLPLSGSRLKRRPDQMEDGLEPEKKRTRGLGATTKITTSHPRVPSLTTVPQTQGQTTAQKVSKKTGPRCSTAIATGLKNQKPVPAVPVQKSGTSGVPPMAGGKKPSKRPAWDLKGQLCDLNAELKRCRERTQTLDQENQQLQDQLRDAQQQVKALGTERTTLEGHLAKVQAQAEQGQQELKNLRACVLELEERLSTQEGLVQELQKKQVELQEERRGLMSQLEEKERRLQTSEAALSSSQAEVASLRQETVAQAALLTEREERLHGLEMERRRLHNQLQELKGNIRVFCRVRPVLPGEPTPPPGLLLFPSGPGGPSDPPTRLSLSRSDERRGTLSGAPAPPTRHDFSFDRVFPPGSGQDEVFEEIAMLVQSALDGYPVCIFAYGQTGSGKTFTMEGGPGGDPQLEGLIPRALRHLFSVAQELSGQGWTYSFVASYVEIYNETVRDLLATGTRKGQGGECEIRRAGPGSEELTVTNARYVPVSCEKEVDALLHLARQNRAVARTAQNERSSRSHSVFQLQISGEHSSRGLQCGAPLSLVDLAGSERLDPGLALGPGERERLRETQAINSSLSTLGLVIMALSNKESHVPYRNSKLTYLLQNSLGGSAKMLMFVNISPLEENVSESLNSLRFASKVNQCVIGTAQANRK
In words: ADP-Glo HSET assay (3 μM ATP), microtubule-stimulated ATPase. Conditions: for HSET inhibitory activity (in words): HSET ADP-Glo. Type of assay: biochemical. The procedure: The HSET or Eg5 ATPase activity was measured using the ADP-Glo Kinase Assay kit (Promega, V9102). The assays were run using final concentrations of 5 nM full-length human N-terminal His-tag HSET or 4 nM GST-tagged Eg5 motor domain protein (Cytoskeleton, EG01) and an assay buffer containing 20 mM HEPES pH 6.8, 10 mM MgCl2, 0.25 mM EGTA, 0.4 mM Triton X-100, and 1 mM DTT. Preformed microtubules (Universal Biologicals Cambridge, bovine MT001-XL, or porcine MT002-XL), which were reconstituted in 15 mM PIPES pH 7, 1 mM MgCl2, and 20 μM paclitaxel, were present at a final assay concentration of 70 μg/mL. A reaction volume of 5 μL was used in Proxiplate 384 plus white assay plates (PerkinElmer, 6008280). To measure compound inhibition, 100 nL of compound dissolved in DMSO or DMSO alone was preincubated with the HSET and microtubules for 10 min before 3 μM Ultra-Pure ATP was added to start the ATPase reaction for the 3 μM ATP HSET assay. For the 500 μM ATP HSET assay, the addition of 500 μM Ultra-Pure ATP was used. For the Eg5 ATPase assay, 4.8 μM Ultra-Pure ATP was used. All reactions were incubated at 25 °C for 80 min and then stopped by the addition of 5 μL of the ADP-Glo reagent. 10 μL of Kinase Detection Reagent was then added after a further 45 min of incubation. The luminescence was read after 45 min on a PheraStar FSX plate reader (BMG Labtech). The data processing was performed using Dotmatics Studies software package. Percentage inhibition was determined based on normalization to high controls (0% inhibition, all reagents with 100 nL of DMSO alone) and low controls (100% inhibition […], without HSET). The IC50 values for each compound were determined using a four-parameter logistic curve fit of % inhibition versus concentration.
A general note: ADP-Glo first removes unused ATP, then detects ADP through luciferase.

The mark [1] stands for this setting: LE = −1.4Log(IC50 [M])/number of non-hydrogen atoms (Table 1).
[2] abbreviates: LLE = −Log(IC50 [M]) – cLogP (MoKa) (Table 1).
Where [3] appears, read: preformed microtubules, 3 μM ATP, mean (±SD) n ≥ 3, >200 from a single determination (Table 1), read-out: HSET ADP-Glo IC50.
Where [4] appears, read: LE = −1.4Log(IC50 [M])/number of non-hydrogen atoms (Table 2).
The mark [5] stands for this setting: LLE = −Log(IC50 [M]) – cLogP (MoKa) (Table 2).
Setting [6] is: preformed microtubules, 3 μM ATP, mean (±SD) n ≥ 3, >200 from a single determination (Table 2), read-out: HSET ADP-Glo IC50.

In the case of `CCOC(=O)c1sc(NC(=O)CCNC(=O)c2cccc(-c3nnc(C)o3)c2)nc1C` [Compound 16, Ethyl 4-Methyl-2-(3-(3-(5-methyl-1,3,4-oxadiazol-2-yl)benzamido)propanamido)thiazole-5-carboxylate], the LE under setting [1] is listed as 0.3. The LLE under setting [2] is reported as 4.4. Moreover, the IC50 under setting [3] was 0.26 µM.

Consider `CCOC(=O)c1sc(C(=O)NCCNC(=O)c2cccc(-c3noc(C)n3)c2)nc1C` [Compound 25, Ethyl 4-Methyl-2-((2-(3-(5-methyl-1,2,4-oxadiazol-3-yl)benzamido)ethyl)carbamoyl)thiazole-5-carboxylate], for which, under setting [4], the LE was determined as 0.29. Further, the LLE under setting [5] is given as 3.9. Under setting [6], the IC50 was 0.405 µM. The “fold reduction in HSET potency” value (relative to 13) was “six-fold”.

As to `CCOC(=O)c1sc(NC(=O)CCNC(=O)c2ccccc2C)nc1C` [Compound 3, Ethyl 4-methyl-2-(3-(2-methylbenzamido)propanamido)thiazole-5-carboxylate], the inhibition at 200 µM (200μM compound, 3 μM ATP, single determination) amounted to 52%. In addition, under “relative to 2”, the “fold reduction in HSET potency” value was “seventy-fold”.

Consider `CCOC(=O)c1cnc(NC(=O)CCNC(=O)c2cccc(-c3noc(C)n3)c2)s1` [Compound 19, Ethyl 2-(3-(3-(5-Methyl-1,2,4-oxadiazol-3-yl)benzamido)propanamido)thiazole-5-carboxylate], for which, for the setting “4μM compound, 3 μM ATP”, the inhibition at 4 µM came to 50%. Under “relative to 13”, the “fold reduction in HSET potency” value is listed as 65 fold. Besides, the IC50 (supplementary CSV, read-out: HSET ADP-Glo IC50) was over 4 µM.

With `CCOC(=O)c1sc(NC(=O)CCNC(=O)c2ccc(C)cc2)nc1C` [Compound 4, Ethyl 4-Methyl-2-(3-(4-methylbenzamido)propanamido)thiazole-5-carboxylate], the IC50 runs as follows: (3 μM ATP, curve plateaued, read-out: mean concentration observed at 50% inhibition (HSET ADP-Glo)) 13 µM; under setting [3], 4.73 µM. In addition, the LE under setting [1] is 0.29. In addition, the LLE under setting [2] was 2.2.

In the case of `CCOC(=O)c1sc(NC(=O)C[C@@H](C)NC(=O)c2cccc(-c3noc(C)n3)c2)nc1C` [Compound 31, Ethyl 4-Methyl-2-[[(3R)-3-[[3-(5-methyl-1,2,4-oxadiazol-3-yl)benzoyl]amino]butanoyl]amino]thiazole-5-carboxylate], the LE under setting [4] is reported as 0.29. Besides, the LLE under setting [5] was 3.4. Under setting [6], the IC50 was 0.288 µM.

On to `CCOC(=O)c1ccc(NC(=O)CCNC(=O)c2cccc(-c3noc(C)n3)c2)nc1C` [Compound 27, Ethyl 2-Methyl-6-(3-(3-(5-methyl-1,2,4-oxadiazol-3-yl)benzamido)propanamido)nicotinate], for which the LE under setting [4] came out at 0.22. Under setting [5], the LLE worked out at 2.5. Besides, under setting [6], the IC50 is 11.5 µM. In addition, where the note is “relative to 13”, the “fold reduction in HSET potency” value is recorded as “greater than 180 fold”.

On to `CCOC(=O)c1sc(NC(=O)CCNC(=O)c2ccccc2)nc1C` [Compound 9, Ethyl 2-(3-Benzamidopropanamido)-4-methylthiazole-5-carboxylate], for which the “HSET inhibitory activity (in words)” value is listed as “ablated the activity”. Also, the IC50 under setting [3] was over 200 µM.

Turning to `CCOC(=O)c1sc(NC(=O)CCCNC(=O)c2cccc(-c3noc(C)n3)c2)nc1C` [Compound 22, Ethyl 4-Methyl-2-(4-(3-(5-methyl-1,2,4-oxadiazol-3-yl)benzamido)butanamido)thiazole-5-carboxylate], the “HSET inhibitory activity (in words)” value is “abolished the HSET activity”. The IC50 under setting [6] is over 200 µM.

On to `CCOC(=O)c1sc(NC(=O)CCNC(=O)c2cccc(-c3ccccc3)c2)nc1C` [Compound 12, Ethyl 2-(3-([1,1′-Biphenyl]-3-carboxamido)propanamido)-4-methylthiazole-5-carboxylate], for which, under setting [1], the LE stood at 0.25. In addition, the LLE under setting [2] was determined as 1.2. The IC50 under setting [3] amounted to 2.44 µM.

Turning to `CCNC(=O)c1sc(NC(=O)CCNC(=O)c2cccc(C)c2)nc1C` [Compound 7, N-Ethyl-4-methyl-2-(3-(3-methylbenzamido)propanamido)thiazole-5-carboxamide], the “HSET inhibitory activity (in words)” value was “no activity”. Further, under setting [3], the IC50 was over 200 µM.

On to `CCOC(=O)c1sc(NC(=O)CCN(C)C(=O)c2cccc(-c3noc(C)n3)c2)nc1C` [Compound 24, Ethyl 4-Methyl-2-(3-(N-methyl-3-(5-methyl-1,2,4-oxadiazol-3-yl)benzamido)propanamido)thiazole-5-carboxylate], for which, under setting [4], the LE is listed as 0.19. Besides, the LLE under setting [5] is on record as 2.1. Further, under setting [6], the IC50 came to 44.4 µM. Further, the “fold reduction in HSET potency” value (relative to 13) came to 700 fold.

Take `CCOC(=O)c1sc(NC(=O)CCNC(=O)c2cccc(Cl)c2)nc1C` [Compound 6, Ethyl 2-(3-(3-Chlorobenzamido)propanamido)-4-methylthiazole-5-carboxylate]: the “HSET inhibitory activity (in words)” value is “ablated the activity”. Further, the IC50 under setting [3] was over 200 µM.

With `CCOC(=O)c1sc(NC(=O)CCNC(C)=O)nc1C` [Compound 8, ethyl 2-(3-acetamidopropanamido)-4-methylthiazole-5-carboxylate], the “HSET inhibitory activity (in words)” value was “ablated the activity”. The IC50 under setting [3] is over 200 µM.

Consider `Cc1csc(NC(=O)CCNC(=O)c2cccc(-c3noc(C)n3)c2)n1` [Compound 20, 3-(5-Methyl-1,2,4-oxadiazol-3-yl)-N-(3-((4-methylthiazol-2-yl)amino)-3-oxopropyl)benzamide], for which, under setting [6], the IC50 is over 200 µM. Besides, under “relative to 13”, the “fold reduction in HSET potency” value was 3000 fold.

`CCOC(=O)c1sc(NC(=O)CCNC(=O)c2cccc(-c3nc(C)no3)c2)nc1C` [Compound 17, Ethyl 4-Methyl-2-(3-(3-(3-methyl-1,2,4-oxadiazol-5-yl)benzamido)propanamido)thiazole-5-carboxylate]: under setting [1], the LE is listed as 0.32. Also, under setting [2], the LLE amounted to 4.3. For the same molecule, the IC50 under setting [3] was determined as 0.101 µM.

As to `CCOC(=O)c1sc(NC(=O)CCNC(=O)c2cccc(-c3noc(CC)n3)c2)nc1C` [Compound 14, Ethyl 2-(3-(3-(5-Ethyl-1,2,4-oxadiazol-3-yl)benzamido)propanamido)-4-methylthiazole-5-carboxylate], the LE under setting [1] came to 0.25. The LLE under setting [2] stood at 2.8. Moreover, the IC50 under setting [3] is 2.1 µM. In addition, the “fold reduction in HSET potency” value (relative to 13) is 33 fold.

Consider `CCOC(=O)c1sc(NC(=O)CCNC(=O)c2cccc(CC)c2)nc1C` [Compound 5, Ethyl 2-(3-(3-Ethylbenzamido)propanamido)-4-methylthiazole-5-carboxylate], for which, under setting [1], the LE was 0.29. In addition, the LLE under setting [2] was 2.2. For the same molecule, the IC50 under setting [3] is 2.32 µM.

In the case of `CCOC(=O)c1sc(NC(=O)CCNC(=O)C2CCCC(C)C2)nc1C` (centres unmarked) [Compound 10, Ethyl 4-Methyl-2-(3-(3-methylcyclohexane-1-carboxamido)propanamido)thiazole-5-carboxylate], the “HSET inhibitory activity (in words)” value is recorded as “ablated the activity”. For the same molecule, the IC50 under setting [3] is over 200 µM.

In the case of `CCOC(=O)c1nc(NC(=O)CCNC(=O)c2cccc(-c3noc(C)n3)c2)cn1C` [Compound 29, Ethyl 1-Methyl-4-(3-(3-(5-methyl-1,2,4-oxadiazol-3-yl)benzamido)propanamido)-1H-imidazole-2-carboxylate], the “HSET inhibitory activity (in words)” value is “no HSET inhibition”. Further, under setting [6], the IC50 was over 200 µM.
